From patent publication US20040229284A1, “Multiplex analysis of proteins” (The Regents of the University of California, priority 2003, published 2004)

Legend:
Format in all cases: cell-based
[1] = tested on: EGFR; assay: Microsphere (Luminex) detection of tyrosine-phosphorylated EGFR in lysates of activated A431 cells; conditions: for detection of tyrosine phosphorylated EGFR in lysates of activated cells: anti-EGFR coated microspheres, 4G10-biotin, streptavidin-R-phycoerythrin
Experimental: A431 cells were grown to 80-90% confluency in T75 flasks. Cells were washed once with fresh media (37° C.). For treatment, sodium pervanadate was prepared as described above and diluted into DMEM to 1 mM final concentration. Two ml of 1 mM sodium pervanadate containing media, prewarmed to 37° C., was added per T75 flask and the cell monolayer was covered with it. Cells were incubated at 37° C. for 5 min. Activated cells were lysed and processed as described below.
For pathway specific activation of A431 cells, which overexpress the epidermal growth factor receptor (EGFR), the cells were treated with epidermal growth factor (EGF). Cells were grown to about 80-90% confluency in a T75 flask. The optimal concentration of EGF for activation of the EGFR pathway in A431 cells was determined to be 100 μM. EGF was diluted in DMEM containing 10% serum. Two ml of the diluted EGF (100 μM) was layered on top of the cell monolayer. Cells were incubated at 37° C. for 15 min for activation. Activated cells were lysed and processed as described below.
A431 cells were lysed by adding 1 ml of 1× lysis buffer (1% NP-40 and protease inhibitor cocktail in PBS), pre-chilled on ice, per T75 flask. Cells were removed by scraping with a cell scraper. Lysate was vortexed immediately after addition of lysis buffer and incubated on ice for 15 min. While incubating on ice, it was mixed by vortexing every 5 min. […]
(§1) After incubation with the lysate, liquid was drained from the bottom of plate, under vacuum, on a suction apparatus (Millipore Corporation) designed to fit these plates. […] Washed microspheres were resuspended in 100 μl of wash buffer per well and analyzed in the Luminex-100™ instrument, according to the manufacturer's instructions.
Later experiments focused on analyzing multiple proteins in another pathway simultaneously, as described below. (It will be evident that multiple proteins in the EGFR pathway or any other pathways or combinations thereof could similarly be analyzed simultaneously.)

[2] = tested on: Lck; assay: Immunoprecipitation and Western analysis with biotinylated 4G10, Jurkat lysates: Lck; conditions: Jurkat cell lysates, treated vs untreated; FIG. 3
Experimental: (§2) To confirm that microspheres coated with antibodies to Lck, Zap70 and LAT captured predominantly specific proteins in cell lysates, immunoprecipitation was performed with these antibodies. Cell lysates (1×10^8 cells in 1 ml) were incubated with 2.5 μg of each antibody for 1 hr. The immune complexes were captured with Protein G conjugated sepharose (Sigma Chemicals, St. Louis, Mo.) and resolved by standard polyacrylamide gel electrophoresis (PAGE). Resolved proteins were transferred to PVDF membrane (BiORad, Hercules, Calif.) and probed with biotinylated 4G10 (1:2000 dilution in 5% non-fat powdered milk in PBS). Phosphorylated bands were finally detected by ABC Detection Reagent (Vector Laboratories, Burlingame, Calif.) and Chemiluminescent Substrate (Pierce). […] These phosphorylated proteins predominated in their respective immunoprecipitates.

[3] = tested on: Lck; assay: Five-plex microsphere (Luminex) assay of tyrosine phosphorylation in activated Jurkat T-cells: Lck; conditions: lysate from pervanadate treated Jurkat cells, 37° C., 5 min; FIG. 2
Experimental: (§3) Jurkat cells were resuspended to a density of 1×10^8 cells/ml in PBS. Cells were pre-warmed to 37° C. for 15 min. To each milliliter of cell suspension, 40 μl of sodium pervanadate was added. Cells were mixed and immediately incubated at 37° C. for 5 min. Activated cells were lysed, and cell lysates were processed as described below.
(§4) For pathway specific activation, Jurkat cells were treated with anti-CD3-receptor monoclonal antibody (UCHT1) (Becton Dickenson, San Diego, Calif.). Cells were resuspended in PBS at a density of 1×10^8/ml and prewarmed to 37° C. Anti-CD3 antibody was added to a final concentration of 5 μg/ml. Cells were mixed and incubated at 37° C. for various times ranging from 5 sec to 10 min. Optimal phosphorylation of most tyrosine kinases and their substrates in the T-cell receptor pathway occurred in 5 min.
(§5) Jurkat cells were lysed by adding a volume of 2× lysis buffer (2% NP-40 and protease inhibitor cocktail (both from Roche Diagnostics, Mannheim, Germany) in PBS), pre-chilled on ice, equal to the volume of the resuspended cells. […]
as §1, with “instructions. […]” for “instructions.”

[4] = tested on: LAT; assay: Five-plex microsphere (Luminex) assay of tyrosine phosphorylation in activated Jurkat T-cells: LAT; conditions: lysate from pervanadate treated Jurkat cells, 37° C., 5 min; FIG. 2
Experimental: as §3, §4, §5
as §1, with “instructions. […]” for “instructions.”

[5] = tested on: Zap70; assay: Five-plex microsphere (Luminex) assay of tyrosine phosphorylation in activated Jurkat T-cells: Zap70; conditions: lysate from pervanadate treated Jurkat cells, 37° C., 5 min; FIG. 2
Experimental: as §3, §4, §5
as §1, with “instructions. […]” for “instructions.”

[6] = tested on: Zap70; assay: Immunoprecipitation and Western analysis with biotinylated 4G10, Jurkat lysates: Zap70; conditions: Jurkat cell lysates, treated vs untreated; FIG. 3
Experimental: as §2

[7] = tested on: LAT; assay: Immunoprecipitation and Western analysis with biotinylated 4G10, Jurkat lysates: LAT; conditions: Jurkat cell lysates, treated vs untreated; FIG. 3
Experimental: as §2

Row | Substance | optimal concentration of EGF for activation of the EGFR pathway ([1]; 37° C., 15 min) | detection of tyrosine phosphorylated EGFR in lysates of activated cells [1] | phosphorylated band of Lck in immunoprecipitate [2] | fluorescent signal from streptavidin-phycoerythrin, anti-Lck coated microspheres [3] | fluorescent signal from streptavidin-phycoerythrin, anti-LAT coated microspheres [4] | fluorescent signal from streptavidin-phycoerythrin, anti-Zap70 coated microspheres [5] | phosphorylated band of Zap70 in immunoprecipitate [6] | phosphorylated band of LAT in immunoprecipitate [7]
1 | epidermal growth factor [EGF] | 100 µM | could be detected |  |  |  |  |  | 
2 | sodium pervanadate |  | could be detected | detected only in lysates from cells treated with sodium pervanadate | strong fluorescent signal | strong fluorescent signal | strong fluorescent signal | detected only in lysates from cells treated with sodium pervanadate | detected only in lysates from cells treated with sodium pervanadate
